Measurements taken from US20110263862A1, “PIPERIDINE DERIVATIVE, PIPERAZINE DERIVATIVE AND AGENT FOR TREATMENT OF DISEASE INVOLVING CENTRAL NERVOUS SYSTEM DISORDERS” (M'S Science Corporation, priority 2008, published 2011).

Assays:
[1] = biological target: T1, sigma receptor (Cavia porcellus, UniProt Q60492); assay: Evaluation of affinity to sigma receptors ([3H](+)-pentazocine receptor binding experiment); design: species or system guinea pig; settings: membrane preparation from whole brain of guinea pigs, 25° C., 60 minutes, Dixon plot
T1 construct: A membrane preparation as a sigma receptor obtained from the whole brain of guinea pigs; from tissue; host or cells: guinea pig whole brain membrane preparation
Protocol: A membrane preparation as a sigma receptor obtained from the whole brain of guinea pigs was used as an assay system; [^3H] (+)-pentazocine was used as a radioactive ligand; (+)-pentazocine was used as a positive substance; and 50 mM Tris hydrochloric acid buffer (pH 7.4) was used as a buffer.
The measurement of the following radioactivity was performed according to a common method after the binding reaction had been carried out at 25° C. for 60 minutes.
The inhibition rate was determined by the equation of “100−binding rate”. The binding rate is represented by the following equation:
The IC50 of the test substance was calculated from a regression equation to the dose-response curve. That is, the ratio y=(B−N)/(B0−N) wherein a value of (B−N) is a specific binding radioactivity in the presence of a test substance, and a value of (B0−N) is a specific binding radioactivity in the absence of a test substance was first subjected to logit conversion and applied to a logit-log model plotted against the common logarithm of the test substance concentration to create a dose-response curve. […] The regression equation to the dose-response curve used is as follows:
wherein Y=logity=ln(y/(1−y), X=log x, and a and b are each a constant, provided that x is a solute concentration of a test substance.
Then, for each concentration of the positive substance, the reaction rate was measured while changing the concentration of the test substance in a range including the IC50 to create the Dixon plot, and the Ki value was calculated from the test substance concentration giving an intersection of these straight lines.

[2] = tested on: rat cerebral cortex neural cells; assay: Evaluation of neurite outgrowth-promoting activity in central neural cells; type: cell-based; settings: 48 hours after addition, longest neurite length 60 μm or more, mean±standard error, control 18.0 ± 1.6
Protocol: The neurite outgrowth-promoting effect of the rat cerebral cortex neural cells on test substances was evaluated using the following method. The cerebral cortex neural cells were isolated from Wistar rats on the 18th day of pregnancy according to the method of Springer Neuroscience Lab Manual. That is, under ether anesthesia, a fetal rat was removed from the uterus of a pregnant rat on day 18, and transferred into a petri dish containing HBSS (manufactured by Gibco, Inc.) on ice. The brain was subdivided into three pieces under a stereoscopic microscope to cut out the cerebral cortex. The cerebral cortex that had been cut out was dispersed with a neural cell dispersion solution (manufactured by Sumitomo Bakelite Co., Ltd.) to prepare rat cerebral cortex cells.
The resulting cerebral cortex cells were subjected to cell culture. Neurobasal medium (manufactured by Gibco, Inc.) supplemented with B27 Supplement (manufactured by Gibco, Inc.; Fin. 2% v/v), L-glutamine (manufactured by IBCO company; Fin. 0.5 mM) and GlutaMax I (manufactured by Gibco, Inc.; Fin. 0.5 mM) was used as the culture medium. The culture conditions were as follows: 5% CO2, 95% air, 100% humidity, and 37° C. The cells were inoculated to polylysine-coated 8-well slides (manufactured by IWAKI company) so as to have about 2×10^4 cells/well.
Compounds (1) to (6) were added as respective test substances (final concentrations: […] and 1.0 μM) to the culture solution at about 3 hours after the cell inoculation, and the culture solution with no additives was used as a control.
At 48 hours after the addition of the compounds, the cells were fixed at room temperature for about 30 minutes using 4% paraformaldehyde (manufactured by Wako Pure Chemical Industries), and incubated with an anti-α-Tublin antibody (Anti-α-Tubulin Alexa Fluor 488 conjugate) recognizing a microtubule protein, at room temperature for one hour. After washing, the nucleus of the whole cell was stained with a nucleic acid-staining agent DAPI. The cells were observed under a fluorescence microscope at a magnification of 20 times. The stained cell image and the nuclear staining image in the same field of vision were imported into a computer as the image. Using an image analysis software (MethaMorph (registered trademark), Molecular Devises), the image imported into the computer, was used to measure the “longest neurite length” that was the length of the longest neurite of individual cell in each field of vision. A cell having a length of the “longest neurite length” of 60 μm or more is defined as a “neurite forming cell” and the neurite forming activity was evaluated by the ratio of the “neurite forming cell” occupied in the number of the cells in the same field of vision. In other words, such evaluation was performed by determining the rate of the neurite forming cells using the following equation:
Rate of neurite forming cells=[Number of neurite forming cells/Number of total cells in the same field of vision]×100
Each numerical value represents mean±standard error.

T1 sequence (Q60492 whole entry): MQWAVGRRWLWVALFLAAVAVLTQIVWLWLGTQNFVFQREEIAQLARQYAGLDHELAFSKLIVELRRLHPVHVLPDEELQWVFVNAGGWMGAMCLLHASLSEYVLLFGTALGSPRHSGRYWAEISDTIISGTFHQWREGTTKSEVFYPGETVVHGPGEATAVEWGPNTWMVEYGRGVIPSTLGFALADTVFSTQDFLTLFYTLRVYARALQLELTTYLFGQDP

| Compound | Ki [1] | Neurite outgrowth-promoting activity (rate of neurite forming cells) ([2]; 0.3 μM) | Neurite outgrowth-promoting activity (rate of neurite forming cells) ([2]; 1.0 μM) |
| --- | --- | --- | --- |
| c1ccc(CN2CCN(C3CCCCC3)CC2)cc1 [Compound (1), 1-benzyl-4-cyclohexylpiperazine] | 6.5 nM | 55.2 ± 1.5% | 54.6 ± 1.5% |
| c1ccc(CCN2CCN(C3CCCCC3)CC2)cc1 [Compound (2), 1-(2-phenylethyl)-4-cyclohexylpiperazine] | 6 nM | 55.7 ± 2.4% | 55.1 ± 2.3% |
| c1ccc(CCCN2CCN(C3CCCCC3)CC2)cc1 [Compound (3), 1-(3-phenylpropyl)-4-cyclohexylpiperazine] | 6.1 nM | 49.6 ± 2.7% | 58.4 ± 2.8% |
| c1ccc(CC2CCN(C3CCCCC3)CC2)cc1 [Compound (4), 1-cyclohexyl-4-benzylpiperidine] | 7 nM | 50.7 ± 2.7% | 51.1 ± 2.9% |
| c1ccc(CCC2CCN(C3CCCCC3)CC2)cc1 [Compound (5), 1-cyclohexyl-4-(2-phenylethyl)piperidine] | 3.9 nM | 51.2 ± 2.0% | 48.9 ± 1.5% |
| c1ccc(CCCC2CCN(C3CCCCC3)CC2)cc1 [Compound (6), 1-cyclohexyl-4-(3-phenylpropyl)piperidine] | 2.1 nM | 54.2 ± 1.7% | 46.0 ± 2.4% |
| COc1ccc(CCN2CCN(CCCc3ccccc3)CC2)cc1OC [Reference compound, reference compound] | – | 44.6 ± 2.2% | 58.4 ± 1.8% |
